Assay results taken from patent US20120329794A1, “Ab1 KINASE INHIBITORS” (Kyowa Hakko Kirin Co., Ltd., priority 2006, published 2012).

Molecular target: T1, Abl(T315I) protein (Homo sapiens, UniProt P00519, T315I)
T1 construct: purchased Upstate 14-522
Assay: Abl T315I inhibitory activity (radiometric kinase assay)
Assay type: biochemical
Conditions: 1 μmol/L test compound
Description: In order to measure Abl T315I inhibitory activity, the following method was used: A reaction solution was prepared so that the final concentrations in a volume of 25 μL were 5 to 10 mU of Abl(T315I) protein (Upstate, catalog No. 14-522), 8 mmol/L of 3-morpholinopropane sulfonic acid (pH 7.0), 0.2 mmol/L of, EDTA, 50 μmol/L of EAIYAAPFAKKK, 10 mmol/L of Mg acetate, [γ-^33P-ATP] (500 cpm/pmol), 0.1% of dimethyl sulfoxide (DMSO), and 1 μmol/L of test compound, followed by enzyme reaction at room temperature for 40 minutes. The reaction was terminated with 5 μL of a 3% aqueous phosphoric acid solution, and the reaction solution was added to a P30 filter mat. Then, the filter was washed with a 75 mmol/L aqueous phosphoric acid solution three times and 100% methanol once, and then dried. Then, the radioactivity of the filter was measured.
Assuming that a measured value of an enzyme to which 0.1% of DMSO was added was 100%, and a measured value of a sample to which an enzyme was not added was 0%, the relative activity (%) of radioactivity of a sample to which the test compound was added was calculated, and a value obtained by subtracting the calculated value from 100 was considered as Abl T315I inhibitory activity (%) of the test compound.

Row | Compound | inhibition at 1 µM [%]
1 | Nc1cc(/C=C/c2n[nH]c3ccccc23)ccc1OCCN1CCOCC1 [Compound 4] | ≥ 90
2 | CC(=O)N1CCN(C(=O)c2ccc(/C=C/c3n[nH]c4ccccc34)cc2)CC1 [Compound 6] | ≥ 90
3 | COCC(=O)N1CCN(C(=O)c2ccc(/C=C/c3n[nH]c4ccccc34)cc2)CC1 [Compound 7] | ≥ 90
